Experimental findings from PubChem BioAssay (NCI) are described below.

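Values below derive from 48-hour exposures of cells grown in 96-well plates, with endpoints linearly interpolated between the two concentrations bracketing the appropriate inhibition level. Here, GI50 denotes the concentration required for 50% inhibition of growth. TGI: total growth inhibition.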 Some results are limits rather than exact numbers.

Test systems include NCI-H522 lung; COLO 205 colon; M14 melanoma; KM12 colon; DU-145 prostate; RPMI-8226 leukemia; LOX IMVI melanoma; HCT-116 colon; CCRF-CEM leukemia; TK-10 renal.
Holding throughout (experiment): growth of human tumour cells (NCI), 48 h

For `C=CC(=O)N1CCC(C2CCNc3c(C(N)=O)c(-c4ccc(Oc5ccccc5)cc4)nn32)CC1` (stereo not given), the GI50 in the assay on NCI-H522 lung is 4.93 µM; in the assay with COLO 205 colon it was 19.1 µM; in the assay with M14 melanoma, 15.4 µM; in the assay with KM12 colon, 22.9 µM; in the assay on DU-145 prostate, 11.6 µM; in the assay on RPMI-8226 leukemia, 12.4 µM. The GI50 in the assay on LOX IMVI melanoma was 13.3 µM; in the assay on HCT-116 colon, 17.6 µM; with CCRF-CEM leukemia, 24.8 µM; with TK-10 renal, 1.29 µM. For the same compound, the TGI with NCI-H522 lung is 22.7 µM; with COLO 205 colon, 40.2 µM; in the assay on M14 melanoma, 33.1 µM; in the assay with KM12 colon, 67 µM; in the assay with DU-145 prostate it was above 100 µM; in the assay on RPMI-8226 leukemia it was 39.5 µM. The TGI with LOX IMVI melanoma is 29.4 µM; in the assay on HCT-116 colon it was 39.5 µM; in the assay with CCRF-CEM leukemia, above 100 µM; in the assay with TK-10 renal, 11.6 µM.
Turning to `Ic1ccc(-n2nnnc2-c2cnoc2-c2ccccc2)cc1`, the GI50 is 46.3 µM in the assay with NCI-H522 lung; above 59 µM in the assay on COLO 205 colon; 37.6 µM with M14 melanoma; 47.1 µM in the assay with KM12 colon; 5.99 µM with DU-145 prostate; 22.4 µM in the assay on RPMI-8226 leukemia. Also, the GI50 in the assay on LOX IMVI melanoma is 49.3 µM; with HCT-116 colon it was above 43 µM; in the assay with CCRF-CEM leukemia, 1.21 µM; in the assay on TK-10 renal it was 41.5 µM. In addition, the TGI in the assay on NCI-H522 lung was above 100 µM; with COLO 205 colon it was above 100 µM; with M14 melanoma, above 67.3 µM; with KM12 colon, above 89.6 µM; with DU-145 prostate, above 100 µM; with RPMI-8226 leukemia, above 64 µM. Also, the TGI is above 100 µM with LOX IMVI melanoma, above 70 µM in the assay on HCT-116 colon, above 48.8 µM with CCRF-CEM leukemia and above 82.3 µM in the assay with TK-10 renal.
